From ChEMBL document CHEMBL3885861, “Open TG-GATES”

Organism: Rattus norvegicus
Test: Open TG-GATES - Regimen: Single
Assay type: toxicity, organism-based, Sprague-Dawley
Design: regimen Single, gender Male, age 6 weeks
Details: in vivo, po, route gavage; for TP / gamma-GTP / A/G / ALP / ALT / AST / BUN / CRE / Ca / Cl / DBIL / GLC / IP / K / LDH / Na / PL / RALB / TBIL / TC / TG: tissue Plasma; for APTT / Bas / Eos / Fbg / Hb / Ht / Lym / MCH / MCHC / MCV / Mono / Neu / PT / Plat / RBC / Ret / WBC: tissue Blood; for KIDNEY_L / KIDNEY_R / KIDNEY_TOTAL: tissue Kidney; for LIVER: tissue Liver
[1] = 2 mg/kg, 3 h, dose level Middle
[2] = 2 mg/kg, 6 h, dose level Middle
[3] = 2 mg/kg, 9 h, dose level Middle

Molecule `COc1ccc2c(c1)c(CC(=O)O)c(C)n2C(=O)c1ccc(Cl)cc1` [INDOMETHACIN] has a TP (1 mg/kg, 9 h, dose level Low) of 5.3 g/dL, a gamma-GTP (1 mg/kg, 9 h, dose level Low) of 1.4 IU/L and a TERMINAL_BW (1 mg/kg, 24 h, dose level Low) of 215.2 g. It also gave an APTT (1 mg/kg, 24 h, dose level Low) of 16.8 s, a Bas (1 mg/kg, 24 h, dose level Low) of 0% and an Eos (1 mg/kg, 24 h, dose level Low) of 0.8%. It also gave a Fbg (1 mg/kg, 24 h, dose level Low) of 198.2 mg/dL, a Hb (1 mg/kg, 24 h, dose level Low) of 13.5 g/dL and a Ht (1 mg/kg, 24 h, dose level Low) of 40.7%. It also gave a Lym (1 mg/kg, 24 h, dose level Low) of 79%, an MCH (1 mg/kg, 24 h, dose level Low) of 21.8 pg and an MCHC (1 mg/kg, 24 h, dose level Low) of 33.2%. The MCV (1 mg/kg, 24 h, dose level Low) was 65.6 fL, the Mono (1 mg/kg, 24 h, dose level Low) was 8.8% and the Neu (1 mg/kg, 24 h, dose level Low) was 11.4%. The PT (1 mg/kg, 24 h, dose level Low) was 12.3 s, the Plat (1 mg/kg, 24 h, dose level Low) was 112.3 x10_4/uL and the RBC (1 mg/kg, 24 h, dose level Low) was 620.8 x10_4/ul. For the same molecule, the Ret (1 mg/kg, 24 h, dose level Low) was 9%, the WBC (1 mg/kg, 24 h, dose level Low) was 118.2 x10_2/uL and the KIDNEY_L (1 mg/kg, 24 h, dose level Low) was 1 g. The KIDNEY_R (1 mg/kg, 24 h, dose level Low) was 1 g, the KIDNEY_TOTAL (1 mg/kg, 24 h, dose level Low) was 1.9 g and the LIVER (1 mg/kg, 24 h, dose level Low) was 10.2 g. For the same molecule, the A/G (1 mg/kg, 24 h, dose level Low) was 2.2, the ALP (1 mg/kg, 24 h, dose level Low) was 1141.2 IU/L and the ALT (1 mg/kg, 24 h, dose level Low) was 41.2 IU/L. For the same molecule, the AST (1 mg/kg, 24 h, dose level Low) was 71 IU/L, the BUN (1 mg/kg, 24 h, dose level Low) was 16.6 mg/dL and the CRE (1 mg/kg, 24 h, dose level Low) was 0.5 mg/dL. It also gave a Ca (1 mg/kg, 24 h, dose level Low) of 10.3 mg/dL, a Cl (1 mg/kg, 24 h, dose level Low) of 105.2 meq/L and a DBIL (1 mg/kg, 24 h, dose level Low) of 0.016 mg/dL. For the same molecule, the GLC (1 mg/kg, 24 h, dose level Low) was 202.6 mg/dL, the IP (1 mg/kg, 24 h, dose level Low) was 8.6 mg/dL and the K (1 mg/kg, 24 h, dose level Low) was 5.1 meq/L. The LDH (1 mg/kg, 24 h, dose level Low) was 85 IU/L, the Na (1 mg/kg, 24 h, dose level Low) was 138.4 meq/L and the PL (1 mg/kg, 24 h, dose level Low) was 152.8 mg/dL. For the same molecule, the RALB (1 mg/kg, 24 h, dose level Low) was 3.9 g/dL, the TBIL (1 mg/kg, 24 h, dose level Low) was 0.3 mg/dL and the TC (1 mg/kg, 24 h, dose level Low) was 88.4 mg/dL. It also gave a TG (1 mg/kg, 24 h, dose level Low) of 72 mg/dL, a TP (1 mg/kg, 24 h, dose level Low) of 5.7 g/dL and a gamma-GTP (1 mg/kg, 24 h, dose level Low) of 1 IU/L. For the same molecule, the TERMINAL_BW [1] was 195.5 g, the APTT [1] was 17 s and the Bas [1] was 0%. It also gave an Eos [1] of 0.8%, a Fbg [1] of 215 mg/dL and a Hb [1] of 13.5 g/dL. For the same molecule, the Ht [1] was 40.3%, the Lym [1] was 80.2% and the MCH [1] was 22.2 pg. For the same molecule, the MCHC [1] was 33.5%, the MCV [1] was 66.2 fL and the Mono [1] was 8%. It also gave a Neu [1] of 11.4%, a PT [1] of 12.6 s and a Plat [1] of 109.7 x10_4/uL. For the same molecule, the RBC [1] was 609.4 x10_4/ul, the Ret [1] was 10.3% and the WBC [1] was 99.3 x10_2/uL. The KIDNEY_L [1] was 0.9 g, the KIDNEY_R [1] was 0.9 g and the KIDNEY_TOTAL [1] was 1.8 g. It also gave an LIVER [1] of 8.7 g, an A/G [1] of 1.6 and an ALP [1] of 1158.6 IU/L. For the same molecule, the ALT [1] was 39.8 IU/L, the AST [1] was 74.4 IU/L and the BUN [1] was 10.6 mg/dL. For the same molecule, the CRE [1] was 0.4 mg/dL, the Ca [1] was 10.3 mg/dL and the Cl [1] was 105.8 meq/L. For the same molecule, the DBIL [1] was 0.056 mg/dL, the GLC [1] was 185.2 mg/dL and the IP [1] was 10 mg/dL. For the same molecule, the K [1] was 4.8 meq/L, the LDH [1] was 99.4 IU/L and the Na [1] was 137.4 meq/L. The PL [1] was 125 mg/dL, the RALB [1] was 3.7 g/dL and the TBIL [1] was 0.4 mg/dL. The TC [1] was 72.2 mg/dL, the TG [1] was 40 mg/dL and the TP [1] was 6 g/dL. For the same molecule, the gamma-GTP [1] was 1.2 IU/L, the TERMINAL_BW [2] was 199.6 g and the APTT [2] was 17 s. For the same molecule, the Bas [2] was 0%, the Eos [2] was 0.8% and the Fbg [2] was 206.8 mg/dL. The Hb [2] was 13.3 g/dL, the Ht [2] was 40.2% and the Lym [2] was 81.2%. It also gave an MCH [2] of 21.6 pg, an MCHC [2] of 33.2% and an MCV [2] of 65.1 fL. The Mono [2] was 6.4%, the Neu [2] was 12% and the PT [2] was 12.5 s. The Plat [2] was 106.7 x10_4/uL, the RBC [2] was 617.8 x10_4/ul and the Ret [2] was 9.6%. For the same molecule, the WBC [2] was 84.6 x10_2/uL, the KIDNEY_L [2] was 0.9 g and the KIDNEY_R [2] was 0.9 g. For the same molecule, the KIDNEY_TOTAL [2] was 1.8 g, the LIVER [2] was 8.6 g and the A/G [2] was 1.8. It also gave an ALP [2] of 959 IU/L, an ALT [2] of 36.8 IU/L and an AST [2] of 75 IU/L. For the same molecule, the BUN [2] was 10.6 mg/dL, the CRE [2] was 0.5 mg/dL and the Ca [2] was 10.1 mg/dL. For the same molecule, the Cl [2] was 107 meq/L, the DBIL [2] was 0.036 mg/dL and the GLC [2] was 188.4 mg/dL. It also gave an IP [2] of 9.1 mg/dL, a K [2] of 4.9 meq/L and an LDH [2] of 91.4 IU/L. The Na [2] was 137.4 meq/L, the PL [2] was 120.8 mg/dL and the RALB [2] was 3.8 g/dL. It also gave a TBIL [2] of 0.3 mg/dL, a TC [2] of 73.4 mg/dL and a TG [2] of 38.6 mg/dL. The TP [2] was 5.9 g/dL, the gamma-GTP [2] was 2.2 IU/L and the TERMINAL_BW [3] was 198.4 g. The APTT [3] was 16.6 s, the Bas [3] was 0% and the Eos [3] was 0.6%. For the same molecule, the Fbg [3] was 210 mg/dL, the Hb [3] was 13.1 g/dL and the Ht [3] was 39.8%. For the same molecule, the Lym [3] was 79.6%, the MCH [3] was 21.8 pg and the MCHC [3] was 33%. The MCV [3] was 66.1 fL, the Mono [3] was 8.2% and the Neu [3] was 11.8%. It also gave a PT [3] of 12.4 s, a Plat [3] of 108.3 x10_4/uL and an RBC [3] of 602.2 x10_4/ul. It also gave a Ret [3] of 9.7%.
